Experimental findings from patent US5840684A, “Glycopeptide antibiotic derivatives” (Eli Lilly and Company, priority 1995, dated 1998) are described below.

The test system of assay [1] is Staphylococcus aureus S13E. In kind it is cell-based. As to the method: (§1) The MIC's were determined using a standard broth micro-dilution assay.
Assay [2] relates to Staphylococcus aureus SA1199B. The format is cell-based. The procedure:
as §1

Assay [3] has as its system Streptococcus pneumoniae P1. The assay is described as follows: broth micro-dilution MIC. In kind it is cell-based. As to the method: (§2) The formula I compounds have in vitro and in vivo activity against Gram-positive pathogenic bacteria. The MIC's were determined using a standard broth micro-dilution assay.
On the technique in general: Broth dilution looks for growth in wells or tubes with falling amounts of substance.

Assay [4] concerns Staphylococcus haemolyticus 415. The assay is described as follows: broth micro-dilution MIC. The format is cell-based. As to the method: as §2
Assay [5] has as its system Enterococcus gallinarum 245. The assay is described as follows: broth micro-dilution MIC. Conditions: Enterococcus gallinarum 245. The format is cell-based. As to the method:
as §2

For assay [6], the system named is Entercoccus faecium 2041. The assay is described as follows: broth micro-dilution MIC. In kind it is cell-based. Conditions: Entercoccus faecium 2041. The procedure:
as §2

In assay [7] the test system is Staphylococcus epidermidis 270. The assay is described as follows: broth micro-dilution MIC. The format is cell-based. The procedure: as §2
Assay [8] concerns Entercoccus faecium 180. Put plainly: broth micro-dilution MIC. In kind it is cell-based. The note with it: Entercoccus faecium 180. As to the method: as §2
Assay [9] concerns Haemophilus influenzae RD. Put plainly: broth micro-dilution MIC. The format is cell-based. The note with it: Haemophilus influenzae RD. The procedure:
as §2

Assay [10] concerns Staphylococcus haemolyticus 105. Put plainly: broth micro-dilution MIC. The format is cell-based. As to the method: as §2
Assay [11] relates to vancomycin-susceptible enterococci. The assay is described as follows: broth micro-dilution, mean geometric MIC. In kind it is cell-based, Enterococcus faecium and Enterococcus faecalis. Conditions: enterococci, 24-hour incubation.
Assay [12] concerns Staphylococcus aureus SA1199A. Put plainly: broth micro-dilution MIC. In kind it is cell-based. As to the method: as §1
The test system of assay [13] is Staphylococcus aureus 446. The assay is described as follows: broth micro-dilution MIC. In kind it is cell-based. As to the method: as §1
The subject of assay [14] is Staphylococcus aureus 447. Put plainly: broth micro-dilution MIC. The format is cell-based. As to the method: as §1
In assay [15] the test system is Entercoccus faecium 180-1. Put plainly: broth micro-dilution MIC. In kind it is cell-based. The procedure:
as §1

In assay [16] the test system is Staphylococcus aureus 491. The assay is described as follows: broth micro-dilution MIC. In kind it is cell-based. The procedure:
as §1

Assay [17] concerns Streptococcus pyogenes C203. The assay is described as follows: broth micro-dilution MIC. In kind it is cell-based. The procedure: as §1
Assay [18] relates to Staphylococcus aureus SA1199. Put plainly: broth micro-dilution MIC. The format is cell-based. The procedure:
as §1

Assay [19] relates to Entercoccus faecium 276. Put plainly: broth micro-dilution MIC. In kind it is cell-based. As to the method: as §1
Assay [20] has as its system vancomycin-resistant enterococci. The assay is described as follows: broth micro-dilution, mean geometric MIC. In kind it is cell-based, Enterococcus faecium and Enterococcus faecalis. Conditions: enterococci, 24-hour incubation.
Assay [21] deals with Staphylococcus aureus 489. The assay is described as follows: broth micro-dilution MIC. In kind it is cell-based. The procedure:
as §1

Assay [22] relates to Staphylococcus aureus X400. The assay is described as follows: broth micro-dilution MIC. In kind it is cell-based. As to the method:
as §1

The test system of assay [23] is Staphylococcus aureus X778. Put plainly: broth micro-dilution MIC. In kind it is cell-based. As to the method:
as §1

Converted amounts (≈) assume the structure as drawn.

Consider `CNC(CC(C)C)C(=O)NC1C(=O)NC(CC(N)=O)C(=O)NC2C(=O)NC3C(=O)NC(C(=O)NC(C(=O)O)c4cc(O)cc(O)c4-c4cc3ccc4O)C(OC3CC(C)(N)C(O)C(C)O3)c3ccc(c(Cl)c3)Oc3cc2cc(c3OC2OC(CO)C(O)C(O)C2OC2CC(C)(NCc3cc4ccccc4s3)C(O)C(C)O2)Oc2ccc(cc2Cl)C1O` (stereo not shown) [Compound 19], for which the MIC in assay [1] is at most 0.06 mg/L; in assay [2], 1 mg/L (≈ 0.575 µM); in assay [3], at most 0.06 mg/L; in assay [4], 8 mg/L (≈ 4.6 µM); in [5] it was at most 0.06 mg/L; in assay [6] it was at most 0.06 mg/L. Moreover, the MIC was 2 mg/L (≈ 1.15 µM) in assay [7]; 1 mg/L (≈ 0.575 µM) in [8]; 32 mg/L (≈ 18.4 µM) in [9]; 4 mg/L (≈ 2.3 µM) in [10]; at most 0.06 mg/L in assay [12]; 0.5 mg/L (≈ 0.288 µM) in assay [13]. The MIC in assay [14] is 1 mg/L (≈ 0.575 µM); in assay [15], at most 0.06 mg/L; in assay [16] it was 2 mg/L (≈ 1.15 µM); in assay [17] it was at most 0.06 mg/L; in assay [18], 0.5 mg/L (≈ 0.288 µM); in assay [19], at most 0.06 mg/L. In addition, in assay [11], the “mean geometric MIC, Vancomycin Sensitive Strains” value stood at 0.22 mg/L.
For the molecule `CNC(CC(C)C)C(=O)NC1C(=O)NC(CC(N)=O)C(=O)NC2C(=O)NC3C(=O)NC(C(=O)NC(C(=O)O)c4cc(O)cc(O)c4-c4cc3ccc4O)C(OC3CC(C)(N)C(O)C(C)O3)c3ccc(c(Cl)c3)Oc3cc2cc(c3OC2OC(CO)C(O)C(O)C2OC2CC(C)(NCc3ccc(-c4ccc(O)cc4)cc3)C(O)C(C)O2)Oc2ccc(cc2Cl)C1O` (stereo not shown) [Compound 20], the MIC in assay [1] is at most 0.06 mg/L; in assay [2], 0.5 mg/L (≈ 0.282 µM); in assay [3], at most 0.06 mg/L; in assay [4] it was 4 mg/L (≈ 2.25 µM); in assay [6], at most 0.06 mg/L; in [7] it was 2 mg/L (≈ 1.13 µM). The MIC was 1 mg/L (≈ 0.563 µM) in [8]; 8 mg/L (≈ 4.51 µM) in assay [9]; 8 mg/L (≈ 4.51 µM) in assay [10]; at most 0.06 mg/L in [12]; 0.5 mg/L (≈ 0.282 µM) in assay [21]; 0.5 mg/L (≈ 0.282 µM) in assay [13]. Besides, the MIC in assay [14] was 4 mg/L (≈ 2.25 µM); in [15] it was at most 0.06 mg/L; in assay [17], at most 0.06 mg/L; in assay [22] it was 0.5 mg/L (≈ 0.282 µM); in [18], 2 mg/L (≈ 1.13 µM). In assay [20], the “mean geometric MIC, Vancomycin Resistant Strains” value amounted to 4.8 mg/L. Further, the “mean geometric MIC, Vancomycin Sensitive Strains” value in [11] is 0.38 mg/L.
As to `CNC(CC(C)C)C(=O)NC1C(=O)NC(CC(N)=O)C(=O)NC2C(=O)NC3C(=O)NC(C(=O)NC(C(=O)O)c4cc(O)cc(O)c4-c4cc3ccc4O)C(OC3CC(C)(N)C(O)C(C)O3)c3ccc(c(Cl)c3)Oc3cc2cc(c3OC2OC(CO)C(O)C(O)C2OC2CC(C)(NCc3ccc(Oc4ccccc4[N+](=O)[O-])cc3)C(O)C(C)O2)Oc2ccc(cc2Cl)C1O` (stereo not shown) [Compound 70], the MIC was at most 0.06 mg/L in assay [1]; at most 0.06 mg/L in assay [2]; 2 mg/L (≈ 1.1 µM) in assay [4]; 2 mg/L (≈ 1.1 µM) in assay [5]; at most 0.06 mg/L in assay [6]; 0.25 mg/L (≈ 0.137 µM) in assay [7]. Also, the MIC was 0.5 mg/L (≈ 0.275 µM) in [8]; 16 mg/L (≈ 8.79 µM) in assay [9]; 2 mg/L (≈ 1.1 µM) in assay [10]; at most 0.06 mg/L in [12]; at most 0.06 mg/L in [21]; 0.5 mg/L (≈ 0.275 µM) in assay [14]. Besides, the MIC in assay [15], in assay [23], in assay [22], in [18] and in assay [19] was at most 0.06 mg/L each time. Moreover, the “mean geometric MIC, Vancomycin Resistant Strains” value in [20] worked out at 2.0 mg/L. The “mean geometric MIC, Vancomycin Sensitive Strains” value in assay [11] was 0.092 mg/L.
Take `CNC(CC(C)C)C(=O)NC1C(=O)NC(CC(N)=O)C(=O)NC2C(=O)NC3C(=O)NC(C(=O)NC(C(=O)O)c4cc(O)cc(O)c4-c4cc3ccc4O)C(OC3CC(C)(N)C(O)C(C)O3)c3ccc(c(Cl)c3)Oc3cc2cc(c3OC2OC(CO)C(O)C(O)C2OC2CC(C)(NCc3ccc(I)s3)C(O)C(C)O2)Oc2ccc(cc2Cl)C1O` (stereo not shown) [Compound 74]: the MIC is 0 mg/L in assay [1]; 1 mg/L (≈ 0.551 µM) in assay [2]; at most 0.06 mg/L in assay [3]; 4 mg/L (≈ 2.2 µM) in assay [4]; at most 0.06 mg/L in [5]; at most 0.06 mg/L in [6]. Moreover, the MIC in [7] was 0.5 mg/L (≈ 0.276 µM); in assay [8], 0.5 mg/L (≈ 0.276 µM); in [9] it was 0.5 mg/L (≈ 0.276 µM); in assay [10], 4 mg/L (≈ 2.2 µM); in assay [12], at most 0.06 mg/L; in [21] it was at most 0.06 mg/L. Further, the MIC in assay [13] was 4 mg/L (≈ 2.2 µM); in [14] it was 1 mg/L (≈ 0.551 µM); in assay [15] it was at most 0.06 mg/L; in assay [23], at most 0.06 mg/L; in [17] it was at most 0.06 mg/L; in assay [22], at most 0.06 mg/L. Moreover, in assay [18], the MIC was at most 0.06 mg/L. In addition, the “mean geometric MIC, Vancomycin Resistant Strains” value in assay [20] is 11 mg/L.
In the case of `CNC(CC(C)C)C(=O)NC1C(=O)NC(CC(N)=O)C(=O)NC2C(=O)NC3C(=O)NC(C(=O)NC(C(=O)O)c4cc(O)cc(O)c4-c4cc3ccc4O)C(OC3CC(C)(N)C(O)C(C)O3)c3ccc(c(Cl)c3)Oc3cc2cc(c3OC2OC(CO)C(O)C(O)C2OC2CC(C)(NCc3ccc(OCCOCCCl)cc3)C(O)C(C)O2)Oc2ccc(cc2Cl)C1O` (stereo not shown) [Compound 75], the MIC in assay [1] was 0 mg/L; in [2], 0.5 mg/L (≈ 0.277 µM); in assay [3], at most 0.06 mg/L; in [4], 4 mg/L (≈ 2.22 µM); in assay [5], 4 mg/L (≈ 2.22 µM); in assay [6] it was at most 0.06 mg/L. The MIC is 0.5 mg/L (≈ 0.277 µM) in assay [7]; 0.5 mg/L (≈ 0.277 µM) in [8]; 2 mg/L (≈ 1.11 µM) in assay [9]; 2 mg/L (≈ 1.11 µM) in [10]; at most 0.06 mg/L in [12]; at most 0.06 mg/L in assay [21]. Besides, the MIC in assay [13] is 2 mg/L (≈ 1.11 µM); in assay [14], 1 mg/L (≈ 0.554 µM); in assay [15] it was at most 0.06 mg/L; in assay [23], at most 0.06 mg/L; in assay [17] it was at most 0.06 mg/L; in assay [22], at most 0.06 mg/L. Also, the MIC in [18] is 2 mg/L (≈ 1.11 µM); in assay [19], at most 0.06 mg/L. Further, the “mean geometric MIC, Vancomycin Resistant Strains” value in assay [20] stood at 16 mg/L. In addition, the “mean geometric MIC, Vancomycin Sensitive Strains” value in [11] stood at 0.50 mg/L.
With `CNC(CC(C)C)C(=O)NC1C(=O)NC(CC(N)=O)C(=O)NC2C(=O)NC3C(=O)NC(C(=O)NC(C(=O)O)c4cc(O)cc(O)c4-c4cc3ccc4O)C(OC3CC(C)(N)C(O)C(C)O3)c3ccc(c(Cl)c3)Oc3cc2cc(c3OC2OC(CO)C(O)C(O)C2OC2CC(C)(NCc3ccc(-c4ccccc4C)c(C)c3)C(O)C(C)O2)Oc2ccc(cc2Cl)C1O` (stereo not shown) [Compound 237], in assay [20], the “mean geometric MIC, Vancomycin Resistant Strains” value turned out to be 1.0 mg/L. The MIC in assay [3] is at most 0.06 mg/L; in assay [4], 1 mg/L (≈ 0.56 µM); in assay [5], 1 mg/L (≈ 0.56 µM); in assay [6], 0.125 mg/L (≈ 0.07 µM); in assay [7], 0.5 mg/L (≈ 0.28 µM); in [9] it was 8 mg/L (≈ 4.48 µM). Also, the MIC in assay [10] was 1 mg/L (≈ 0.56 µM); in assay [12], at most 0.06 mg/L; in assay [21] it was 0.5 mg/L (≈ 0.28 µM); in [13] it was 2 mg/L (≈ 1.12 µM); in assay [14], 1 mg/L (≈ 0.56 µM); in [15], at most 0.06 mg/L. Further, the MIC is 0.5 mg/L (≈ 0.28 µM) in [23]; at most 0.06 mg/L in assay [17]; 1 mg/L (≈ 0.56 µM) in assay [22]; 1 mg/L (≈ 0.56 µM) in assay [18]; 1 mg/L (≈ 0.56 µM) in assay [19]. Also, the “mean geometric MIC, Vancomycin Sensitive Strains” value in assay [11] was determined as 0.048 mg/L.
